These results are taken from patent publication US20170210778A1, “NOVEL COMPOUNDS” (The Provost, Fellows, Foundation Scholars, and the other …, priority 2014, published 2017).

SMILES strings stand for the structures.

The target of one assay is T1, murine NOD1 (Mus musculus, UniProt Q8BHB0).
T1 construct: expressed in transfected cells; host or cells: HEK293
T1 sequence (Q8BHB0 1-953): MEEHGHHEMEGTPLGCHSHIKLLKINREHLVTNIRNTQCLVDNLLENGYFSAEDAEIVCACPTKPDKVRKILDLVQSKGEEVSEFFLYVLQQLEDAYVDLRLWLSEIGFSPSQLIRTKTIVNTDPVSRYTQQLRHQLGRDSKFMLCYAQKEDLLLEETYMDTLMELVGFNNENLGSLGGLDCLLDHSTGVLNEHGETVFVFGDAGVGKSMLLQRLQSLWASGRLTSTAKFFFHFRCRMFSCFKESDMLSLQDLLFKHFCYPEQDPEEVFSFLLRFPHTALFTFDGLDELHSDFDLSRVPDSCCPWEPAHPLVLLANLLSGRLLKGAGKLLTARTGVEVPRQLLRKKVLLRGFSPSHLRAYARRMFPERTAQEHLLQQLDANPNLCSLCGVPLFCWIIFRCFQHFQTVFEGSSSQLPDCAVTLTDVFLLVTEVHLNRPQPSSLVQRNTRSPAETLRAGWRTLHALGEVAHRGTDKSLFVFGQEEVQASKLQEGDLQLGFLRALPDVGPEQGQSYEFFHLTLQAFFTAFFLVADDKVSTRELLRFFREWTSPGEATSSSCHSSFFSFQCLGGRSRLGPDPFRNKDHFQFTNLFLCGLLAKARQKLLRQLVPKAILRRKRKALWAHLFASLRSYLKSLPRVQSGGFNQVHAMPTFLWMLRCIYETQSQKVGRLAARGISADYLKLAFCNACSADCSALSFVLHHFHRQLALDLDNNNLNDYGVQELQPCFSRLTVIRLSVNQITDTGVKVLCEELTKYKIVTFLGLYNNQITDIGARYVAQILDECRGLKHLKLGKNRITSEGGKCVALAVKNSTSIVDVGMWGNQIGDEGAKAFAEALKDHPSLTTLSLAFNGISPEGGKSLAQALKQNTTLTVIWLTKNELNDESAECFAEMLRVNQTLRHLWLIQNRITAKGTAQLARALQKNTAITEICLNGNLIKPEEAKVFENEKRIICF
The experiment in a line: NOD1 functional agonist assay, 293mNOD1-SEAP reporter cells. The class given is cell-based. To be noted: 293mNOD1 cells, OD above 3*O.D of negative control. The essentials: (§1)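 Stably transfected HEK293 cells overexpressing human or murine NOD1 with an NF-κB/AP-1-inducible SEAP reporter; secreted SEAP detected colorimetrically, absorbance read at 620/655 nm. Value is the lowest concentration giving mean OD above 3× the endotoxin-free water negative control; parental 293 SEAP cells lacking NOD1 served as counter-control.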

Assay [1] deals with LPM in the peritoneal cavity. The experiment in a line: Numbers of LPM in the peritoneal cavity after i.p. injection. It is filed as in vivo. The settings on record: injected i.p. into mice; FIG. 1B.
The test system of the next assay is DSS-induced colitis. The experiment in a line: Dextran Sulfate Sodium (DSS)-induced colitis mouse model. The class given is in vivo, mice. The settings on record: 2% DSS in drinking water 7 days; 25 μg i.p. on days 0, 1, 2, 4 and 6; FIG. 3. Here is the method:
As provides in FIG. 3, mice were given water or 2% DSS in their drinking water for 7 days and were treated i.p. with either PBS, vehicle or 25 μg compound of Example 29 (Ex.29) on days 0, 1, 2, 4 and 6 of the experiment. (3A) Body weights were recorded daily. (3B) Mice were sacrificed on day 7 and colon lengths were measured (mean±SE; n=6). (3C) Total mRNA were extracted from the colons on day 7 and the relative expression (RE) of the M2 macrophage markers Relma, and the M1 macrophage markers Ptgs2 (Cox2) and Nos2 were quantified by qPCR (mean±SE; n=6). *, P<0.05; and **, P<0.01 versus DSS+vehicle treated mice.

The test system of assay [2] is DSS-induced inflammation in the colon. The experiment in a line: DSS-induced inflammation in the colon model. To be noted: 2% DSS in drinking water 7 days; 25 μg i.p. on days 0, 1, 2, 4 and 6; FIG. 4. The class given is in vivo, mice. How it is done: Mice were given water or 2% DSS in their drinking water for 7 days and were treated i.p. with either PBS, vehicle or 25 μg compound of Example 29 (Ex.29) on days 0, 1, 2, 4 and 6 of the experiment. Mice were sacrificed on day 7 and colon sections were prepared and stained with H&E.
Arrows indicate areas of severe inflammatory pathology.

In a further assay the test system is PEC. The experiment in a line: IL-10 production by PEC in vitro. It is filed as cell-based. The settings on record: 24 h stimulation, FIG. 1A.
The next assay deals with EAE in C57BL/6 mice. The experiment in a line: Experimental Autoimmune Encephalomyelitis (EAE) model. It is filed as in vivo. To be noted: for EAE-associated weight loss / clinical course of EAE: treated mice, FIG. 1C. The text has this:
EAE is induced in C57BL/6 mice by immunization with an emulsion of MOG35-55 or MOG1-125 in complete Freund's adjuvant (CFA), followed by administration of pertussis toxin (PT) in PBS, first on the day of immunization and then again the following day.

A further assay deals with T2, human NOD1 (Homo sapiens, UniProt Q9Y239).
T2 construct: expressed in transfected cells; host or cells: HEK293
T2 sequence (Q9Y239 1-953): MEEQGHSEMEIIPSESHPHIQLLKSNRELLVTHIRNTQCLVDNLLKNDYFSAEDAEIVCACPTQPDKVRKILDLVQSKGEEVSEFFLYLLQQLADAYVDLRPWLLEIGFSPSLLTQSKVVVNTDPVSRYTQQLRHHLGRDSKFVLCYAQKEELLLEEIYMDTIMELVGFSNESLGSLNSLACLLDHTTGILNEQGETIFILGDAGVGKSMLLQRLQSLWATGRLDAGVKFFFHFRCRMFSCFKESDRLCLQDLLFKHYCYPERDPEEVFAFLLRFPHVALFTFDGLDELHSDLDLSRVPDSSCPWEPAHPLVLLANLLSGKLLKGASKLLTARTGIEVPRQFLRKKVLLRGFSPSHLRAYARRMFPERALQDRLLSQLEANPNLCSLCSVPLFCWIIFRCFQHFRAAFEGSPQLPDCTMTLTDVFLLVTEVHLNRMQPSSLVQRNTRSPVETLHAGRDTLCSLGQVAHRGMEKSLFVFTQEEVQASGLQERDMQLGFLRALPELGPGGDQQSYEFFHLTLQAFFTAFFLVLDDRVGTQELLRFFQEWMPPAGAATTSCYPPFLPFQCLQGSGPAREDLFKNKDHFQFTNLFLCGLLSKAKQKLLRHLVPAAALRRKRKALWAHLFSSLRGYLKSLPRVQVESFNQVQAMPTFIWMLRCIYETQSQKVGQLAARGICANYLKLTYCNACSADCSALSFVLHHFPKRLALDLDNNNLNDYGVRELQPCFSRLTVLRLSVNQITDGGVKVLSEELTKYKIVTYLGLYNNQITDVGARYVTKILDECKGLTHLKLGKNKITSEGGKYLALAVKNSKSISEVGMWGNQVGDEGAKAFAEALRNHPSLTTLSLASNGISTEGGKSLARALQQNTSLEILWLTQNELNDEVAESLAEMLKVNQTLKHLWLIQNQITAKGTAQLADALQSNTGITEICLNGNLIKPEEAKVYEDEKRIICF
The experiment in a line: NOD1 functional agonist assay, 293hNOD1-SEAP reporter cells. It is filed as cell-based. To be noted: 293hNOD1 cells, OD above 3*O.D of negative control. A digest of the protocol: as §1

In the case of `CCCCCCCCCCCCCC(=O)N[C@@H](C)C(=O)N[C@H](CCC(=O)N[C@H](CSC[C@H](N)C(=O)O)C(=O)NCC(=O)O)C(=O)O` [Example 29, N^5-((S)-3-(((R)-2-amino-2-carboxyethyl)thio)-1-((carboxymethyl)amino)-1-oxopropan-2-yl)-N^2-(tetradecanoyl-L-alanyl)-D-glutamine], the “mNod1: concentration where a significant mean optical density (OD) can be observed” value on murine NOD1 is 0.001 µg/mL. In assay [1], the “numbers of LPM in the peritoneal cavity” value is on record as “significantly increased”. Besides, in the assay with DSS-induced colitis, the “protection against DSS-induced colitis” value is recorded as “protects mice against DSS-induced colitis”. Moreover, in assay [2], the “protection against DSS-induced inflammation in the colon” value is “protects mice against DSS-induced inflammation in the colon”. For the same molecule, in the assay with PEC, the “production of IL-10 by PEC” value is recorded as “induced the production of significant concentrations of IL-10”. Also, in the assay with EAE in C57BL/6 mice, the EAE-associated weight loss entry is “prevented associated weight loss” and the “clinical course of EAE” value is reported as “significantly attenuated”. Moreover, the “hNod1: concentration where a significant mean optical density (OD) can be observed” value on human NOD1 stood at 0.0001 µg/mL.
For the molecule `CCCCCCC(=O)N[C@H](CCC(=O)N[C@H](CSC[C@H](N)C(=O)O)C(=O)N[C@H](C)C(=O)O)C(=O)O` [Example 15, N^5-((S)-3-(((R)-2-amino-2-carboxyethyl)thio)-1-(((R)-1-carboxyethyl)amino)-1-oxopropan-2-yl)-N^2-heptanoyl-D-glutamine], on murine NOD1, the “mNod1: concentration where a significant mean optical density (OD) can be observed” value was 0.01 µg/mL. Also, the “numbers of LPM in the peritoneal cavity” value in assay [1] is recorded as “significantly increased”. In addition, in the assay on PEC, the “production of IL-10 by PEC” value is recorded as “induced the production of significant concentrations of IL-10”. Also, in the assay with EAE in C57BL/6 mice (WT mice, FIG. 2), the “EAE attenuation in WT mice” value is given as “significantly attenuated”. Besides, in the assay with EAE in C57BL/6 mice (treated IL-10−/− mice versus untreated WT or IL-10−/− mice, FIG. 2), the “onset of EAE” value is recorded as “slightly later onset”. Further, the “mice that developed EAE” value with EAE in C57BL/6 mice (treated IL-10−/− mice, FIG. 2) came to 100%. Also, in the assay with EAE in C57BL/6 mice (treated WT mice, FIG. 2), the “mice with any symptoms of EAE” value was “one of 6”. For the same molecule, in the assay on EAE in C57BL/6 mice, the EAE-associated weight loss entry is recorded as “prevented associated weight loss” and the “clinical course of EAE” value is recorded as “significantly attenuated”. Moreover, on human NOD1, the “hNod1: concentration where a significant mean optical density (OD) can be observed” value was found to be 0.01 µg/mL.
